Drawing on patent US8946238B2, “Pyrazolo[1,5-A]pyrimidines as antiviral agents” (Gilead Sciences, Inc., priority 2011, dated 2015), this text covers inhibition for 44 compounds.

In this experiment the test system is RSV strain A2. The experiment in a line: RSV antiviral cytoprotection assay in Hep2 cells (RSV-induced cytopathic effect, Cell TiterGlo). Format: cell-based, Respiratory Syncytial Virus (RSV). As to conditions: human respiratory syncytial virus, HEp-2, 0.5 μM compound; RSV A2-infected Hep2 cells; % inhibition calculated from 4-parameter dose response curve, normalized to 0% and 100%; read-out: Percent inhibition at 0.5 μM. The method, then: Antiviral activity against RSV was determined using an in vitro cytoprotection assay in Hep2 cells. […] The method used was similar to methods previously described in published literature (Chapman et al., Antimicrob Agents Chemother. 2007, 51(9):3346-53.)
Hep2 cells were obtained from ATCC (Manassas, VI) and maintained in MEM media supplemented with 10% fetal bovine serum and penicillin/streptomycin. Cells were passaged twice a week and kept at subconfluent stage. Commercial stock of RSV strain A2 (Advanced Biotechnologies, Columbia, Md.) was titered before compound testing to determine the appropriate dilution of the virus stock that generated desirable cytopathic effect in Hep2 cells.
For antiviral tests, Hep2 cells were seeded into 96-well plates 24 hours before the assay at a density of 3,000 cells/well. On a separate 96 well plate, compounds to be tested were serially diluted in cell culture media. Eight concentrations in 3-fold serial dilution increments were prepared for each tested compound and 100 uL/well of each dilution was transferred in duplicate onto plates with seeded Hep2 cells. Subsequently, appropriate dilution of virus stock previously determined by titration was prepared in cell culture media and 100 uL/well was added to test plates containing cells and serially diluted compounds. Each plate included three wells of infected untreated cells and three wells of uninfected cells that served as 0% and 100% virus inhibition control, respectively. Following the infection with RSV, testing plates were incubated for 4 days in a tissue culture incubator. After the incubation, RSV-induced cytopathic effect was determined using a Cell TiterGlo reagent (Promega, Madison, Wis.) followed by a luminescence read-out. The percentage inhibition was calculated for each tested concentration relative to the 0% and 100% inhibition controls and the EC50 value for each compound was determined by non-linear regression as a concentration inhibiting the RSV-induced cytopathic effect by 50%. Ribavirin (purchased from Sigma, St. Louis, Mo.) was used as a positive control for antiviral activity.
Compounds were also tested for antiviral activity against RSV in Hep2 cells using a 384 well format. Compounds were diluted in DMSO using a 10-step serial dilution in 3-fold increments via automation in 4 adjacent replicates each. Eight compounds were tested per dilution plate. 0.4 uL of diluted compounds were then stamped via Biomek into 384-well plates (Nunc 142761 or 164730 w/lid 264616) containing 20 μL of media (Mediatech Inc. MEM supplemented with Glutamine, 10% FBS and Pen/Strep). DMSO and a suitable positive control compound, such as 80 μM GS-329467 or 10 μM 427346 was used for the 100% and 0% cell killing controls, respectively.
Hep2 cells (1.0×10^5 cells/ml) were prepared as above in batch to at least 40 mls excess of the number of sample plates (8 mls cell mix per plate) and infected with vendor supplied (ABI) RSV strain A2 to arrive at an MOI of 1:1000 (virus:cell #) or 1:3000 (vol virus: cell vol). Immediately after addition of virus, the RSV infected Hep2 cell suspension was added to each stamped 384-well plate at 20 μl per well using a uFlow dispenser, giving a final volume of 40 μL/well, each with 2000 infected cells. The plates were then incubated for 5 days at 37° C. and 5% CO2. Following incubation, the plates were equilibrated to room temperature in a biosafety cabinet hood for 1.5 hrs and 40 μL of Cell-Titer Glo viability reagent (Promega) was added to each well via uFlow. Following a10-20 minute incubation, the plates were read using an EnVision or Victor Luminescence plate reader (Perkin-Elmer). The data was then uploaded and analyzed on the Bioinformatics portal under the RSV Cell Infectivity and 8-plate EC50-Hep2-384 or 8-plate EC50-Hep2-Envision protocols. […]
Regarding `COc1cc2ccccc2cc1C(=O)N1CCCC[C@H]1c1cc2nc(N3CC[C@H](N)C3)c(C)cn2n1` [Compound 94], the inhibition at 0.5 µM is 88%. The same measure for `Cc1cnc2c(C(=O)N3CCCC[C@H]3c3cc4nc(N5CC[C@H](N)C5)c(C)cn4n3)c(Cl)ccc2c1` [Compound 95]: 21%; for `Cc1cn2nc([C@@H]3CCCCN3C(=O)c3ccc4ccccc4n3)cc2nc1N1CC[C@H](N)C1` [Compound 96]: 65%; for `COc1ccc2ccccc2c1C(=O)N1CCCC[C@H]1c1cc2nc(N3CC[C@H](N)C3)c(C)cn2n1` [Compound 97]: 100%.

Turning to `Cc1cn2nc([C@@H]3CCCCN3C(=O)c3cccc4c3cnn4C)cc2nc1N1CC[C@H](N)C1` [Compound 98], the inhibition at 0.5 µM is 97%. Regarding `Cc1cn2nc([C@@H]3CCCCN3C(=O)c3csc4ccc(Br)cc34)cc2nc1N1CC[C@H](N)C1` [Compound 99], the inhibition at 0.5 µM was 100%. Turning to `Cc1cn2nc([C@@H]3CCCCN3C(=O)c3cc(Cl)cc(Cl)n3)cc2nc1N1CC[C@H](N)C1` [Compound 100], the inhibition at 0.5 µM is 100%. Consider `Cc1cn2nc([C@@H]3CCCCN3C(=O)c3cn4ncccc4n3)cc2nc1N1CC[C@H](N)C1` [Compound 101], for which the inhibition at 0.5 µM was 16%.

As for `Cc1cn2nc([C@@H]3CCCCN3C(=O)c3ccc(-n4cncn4)cc3Cl)cc2nc1N1CC[C@H](N)C1` [Compound 102], the inhibition at 0.5 µM was 16%. On to `Cc1cn2nc([C@@H]3CCCCN3C(=O)c3ccccc3[S+](C)[O-])cc2nc1N1CC[C@H](N)C1` (some centres unmarked) [Compound 103], for which the inhibition at 0.5 µM is 100%. Regarding `Cc1cn2nc([C@@H]3CCCCN3C(=O)c3ncc(Cl)cc3C(F)(F)F)cc2nc1N1CC[C@H](N)C1` [Compound 104], the inhibition at 0.5 µM is 56%. As to `Cc1cn2nc([C@@H]3CCCCN3C(=O)c3ncc(C(F)(F)F)cc3Cl)cc2nc1N1CC[C@H](N)C1` [Compound 105], the inhibition at 0.5 µM was 31%. For `Cc1cn2nc([C@@H]3CCCCN3C(=O)c3cc(Cl)ccc3C(F)(F)F)cc2nc1N1CC[C@H](N)C1` [Compound 106], the inhibition at 0.5 µM is 100%.

Take `COc1ccc(F)c(C(=O)N2CCCC[C@H]2c2cc3nc(N4CC[C@H](N)C4)c(C)cn3n2)n1` [Compound 107]: the inhibition at 0.5 µM was 100%.

As for `Cc1cn2nc([C@@H]3CCCCN3C(=O)c3cccc4n[nH]cc34)cc2nc1N1CC[C@H](N)C1` [Compound 108], the inhibition at 0.5 µM is 99%. Take `Cc1cn2nc([C@@H]3CCCCN3C(=O)c3cc(F)ccc3C(F)(F)F)cc2nc1N1CC[C@H](N)C1` [Compound 109]: the inhibition at 0.5 µM was 100%. Consider `CCc1ccc(C(=O)N2CCCC[C@H]2c2cc3nc(N4CC[C@H](N)C4)c(C)cn3n2)nc1` [Compound 110], for which the inhibition at 0.5 µM is 36%. The same measure for `Cc1ccc(Br)cc1C(=O)N1CCCC[C@H]1c1cc2nc(N3C[C@@H](C#N)[C@@H](O)C3)c(C)cn2n1` [Compound 112]: 100%; for `COc1ccccc1C(=O)N1CCCC[C@H]1c1cc2nc(N3C[C@@H](C#N)[C@@H](O)C3)c(C)cn2n1` [Compound 113]: 100%.

In the case of `Cc1cn2nc([C@@H]3CCCCN3C(=O)c3cc(F)c(F)c(Cl)c3F)cc2nc1N1C[C@@H](C#N)[C@@H](O)C1` [Compound 114], the inhibition at 0.5 µM was 100%. As for `Cc1cn2nc([C@@H]3CCCCN3C(=O)c3ncccc3Cl)cc2nc1N1C[C@@H](C#N)[C@@H](O)C1` [Compound 115], the figure is 98%. As for `Cc1cn2nc([C@@H]3CCCCN3C(=O)c3cccc(F)c3Cl)cc2nc1N1C[C@@H](C#N)[C@@H](O)C1` [Compound 116], the inhibition at 0.5 µM was 100%.

Regarding `Cc1cn2nc([C@@H]3CCCCN3C(=O)c3ccc(C#N)cc3F)cc2nc1N1C[C@@H](C#N)[C@@H](O)C1` [Compound 117], the inhibition at 0.5 µM is 46%. With `Cc1cn2nc([C@@H]3CCCCN3C(=O)c3ccc(C)c(F)c3F)cc2nc1N1C[C@@H](C#N)[C@@H](O)C1` [Compound 118], the inhibition at 0.5 µM was 99%.

On to `Cc1ccc(C(F)(F)F)c(C(=O)N2CCCC[C@H]2c2cc3nc(N4C[C@@H](C#N)[C@@H](O)C4)c(C)cn3n2)c1` [Compound 120], for which the inhibition at 0.5 µM is 100%.

Take `Cc1ccc(C(=O)N2CCCC[C@H]2c2cc3nc(N4C[C@@H](C#N)[C@@H](O)C4)c(C)cn3n2)c(C(F)(F)F)c1` [Compound 121]: the inhibition at 0.5 µM is 92%. `Cc1cn2nc([C@@H]3CCCCN3C(=O)c3cc(F)ccc3OC(F)(F)F)cc2nc1N1C[C@@H](C#N)[C@@H](O)C1` [Compound 122]: the inhibition at 0.5 µM is 100%. Consider `Cc1cn2nc([C@@H]3CCCCN3C(=O)c3cccc4cn[nH]c34)cc2nc1N1C[C@@H](C#N)[C@@H](O)C1` [Compound 123], for which the inhibition at 0.5 µM was 98%.

Take `Cc1cn2nc([C@@H]3CCCCN3C(=O)c3c(F)ccc(C)c3F)cc2nc1N1C[C@@H](C#N)[C@@H](O)C1` [Compound 124]: the inhibition at 0.5 µM is 100%. As to `COc1ccc(C(=O)N2CCCC[C@H]2c2cc3nc(N4C[C@@H](C#N)[C@@H](O)C4)c(C)cn3n2)c(F)c1` [Compound 126], the inhibition at 0.5 µM is 82%. Regarding `Cc1noc(-c2ccccc2C(=O)N2CCCC[C@H]2c2cc3nc(N4C[C@@H](C#N)[C@@H](O)C4)c(C)cn3n2)n1` [Compound 129], the inhibition at 0.5 µM was 87%. For `Cc1cn2nc([C@@H]3CCCCN3C(=O)c3cc(F)cc4c3OCOC4)cc2nc1N1C[C@@H](C#N)[C@@H](O)C1` [Compound 130], the inhibition at 0.5 µM was 100%.

As for `Cc1ccc(C(=O)N2CCCC[C@H]2c2cc3nc(N4C[C@@H](C#N)[C@@H](O)C4)c(C)cn3n2)c(Cl)c1` [Compound 131], the inhibition at 0.5 µM was 96%. `COc1cc2c(cc1C(=O)N1CCCC[C@H]1c1cc3nc(N4C[C@@H](C#N)[C@@H](O)C4)c(C)cn3n1)CCC2` [Compound 132]: the inhibition at 0.5 µM was 97%.

With `Cc1cn2nc([C@@H]3CCCCN3C(=O)c3ccc4cccc(F)c4n3)cc2nc1N1C[C@@H](C#N)[C@@H](O)C1` [Compound 133], the inhibition at 0.5 µM was 56%. `Cc1cn2nc([C@@H]3CCCCN3C(=O)c3[nH]c4c(C)ccc(C)c4c3C)cc2nc1N1C[C@@H](C#N)[C@@H](O)C1` [Compound 134]: the inhibition at 0.5 µM was 35%.

Regarding `Cc1cn2nc([C@@H]3CCCCN3C(=O)c3cccc4ccnn34)cc2nc1N1C[C@@H](C#N)[C@@H](O)C1` [Compound 135], the inhibition at 0.5 µM was 100%. For the compound `Cc1cn2nc([C@@H]3CCCCN3C(=O)c3c(Cl)nc4ccccn34)cc2nc1N1C[C@@H](C#N)[C@@H](O)C1` [Compound 136], the inhibition at 0.5 µM is 83%. As for `Cc1ccc(S(C)(=O)=O)cc1C(=O)N1CCCC[C@H]1c1cc2nc(N3C[C@@H](C#N)[C@@H](O)C3)c(C)cn2n1` [Compound 138], the figure is 65%. Regarding `Cc1cn2nc([C@@H]3CCCCN3C(=O)c3cccc4c3CCCN4)cc2nc1N1C[C@@H](C#N)[C@@H](O)C1` [Compound 139], the inhibition at 0.5 µM is 100%. As for `Cc1cn2nc([C@@H]3CCCCN3C(=O)c3cccc4c3OCO4)cc2nc1N1C[C@@H](C#N)[C@@H](O)C1` [Compound 140], the inhibition at 0.5 µM is 100%.

On to `Cc1cc(C(=O)N2CCCC[C@H]2c2cc3nc(N4C[C@@H](C#N)[C@@H](O)C4)c(C)cn3n2)c2[nH]ncc2c1` [Compound 143], for which the inhibition at 0.5 µM is 100%.

Consider `Cc1cn2nc([C@@H]3CCCCN3C(=O)c3ccccc3OC3CCCC3)cc2nc1N1C[C@@H](C#N)[C@@H](O)C1` [Compound 144], for which the inhibition at 0.5 µM was 80%. On to `CCS(=O)(=O)c1ccc(F)c(C(=O)N2CCCC[C@H]2c2cc3nc(N4C[C@@H](C#N)[C@@H](O)C4)c(C)cn3n2)c1` [Compound 145], for which the inhibition at 0.5 µM is 60%.

The term inhibition denotes the percentage by which the read-out fell short of the control.
